Data reported in ChEMBL document CHEMBL1158760, “Chromenes from the brown alga Sargassum siliquastrum” (J Nat Prod, 2005).

Target: Cholinesterase (Homo sapiens) (UniProt P06276)
Test: Inhibition of butylcholine esterase at 100 ug/mL

Sequence of Cholinesterase (Homo sapiens) (P06276 whole entry): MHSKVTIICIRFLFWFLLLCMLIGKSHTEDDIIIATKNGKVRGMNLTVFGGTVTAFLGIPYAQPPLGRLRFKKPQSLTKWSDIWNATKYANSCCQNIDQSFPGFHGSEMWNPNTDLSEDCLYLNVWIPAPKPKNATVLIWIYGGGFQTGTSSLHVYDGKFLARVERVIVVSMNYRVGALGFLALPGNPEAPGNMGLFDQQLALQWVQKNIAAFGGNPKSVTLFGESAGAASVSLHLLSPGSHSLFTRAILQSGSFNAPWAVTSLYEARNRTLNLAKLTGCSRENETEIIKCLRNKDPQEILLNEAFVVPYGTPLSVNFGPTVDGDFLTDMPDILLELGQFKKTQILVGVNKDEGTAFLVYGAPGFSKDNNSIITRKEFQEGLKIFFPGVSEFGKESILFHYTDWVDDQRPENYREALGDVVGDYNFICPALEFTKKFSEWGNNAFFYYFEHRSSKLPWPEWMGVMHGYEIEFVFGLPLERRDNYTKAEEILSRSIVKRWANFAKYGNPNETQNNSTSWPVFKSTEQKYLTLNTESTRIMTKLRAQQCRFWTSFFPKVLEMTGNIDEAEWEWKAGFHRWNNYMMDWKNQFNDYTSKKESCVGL

Work on `CC(C)=C[C@@H](O)C(=O)/C(C)=C/CC/C(C)=C/CC[C@]1(C)CCc2cc(O)cc(C)c2O1` yielded an inhibition of 82.7%.
In the case of `CC(C)=CC(C(=O)O)/C(C)=C/CC/C(C)=C/CC[C@]1(C)CCc2cc(O)cc(C)c2O1` (some centres not stated), the inhibition is reported as 80%.
